These results are taken from patent publication US20220257540A1, “COMPOSITIONS AND METHODS FOR TREATMENT OF HEPATITIS B VIRUS INFECTION” (ANHUI RONGHANG BIOTECH DEVELOPMENT CO., LTD., priority 2019, published 2022).

In one data set the target is P-gp (Homo sapiens, UniProt P08183). Particulars: cited from earlier work.
Another data set concerns HBV GT C. The experiment in a line: In vitro anti-HBV efficacy in HBV-infected PXB-cells. In kind it is cell-based. Particulars: for Extracellular HBeAg: Day 27, 10 fold diluted sample. As to the method: Materials & Methods: PXB-cells was infected with HBV GT C. […] The anti-HBV therapeutic efficacy was measured by the analysis of extracellular HBV DNA, HBsAg, HBeAg, h-Alb, and intracellular HBV DNA/cceDNA levels. Entecavir was used as the positive control. The hepatocytes isolated from 3 mice were combined to seed culture plate. The cell density of mixed cell was 7.37×10^6 cells/mL. PXB-cells® are the fresh hepatocytes which are isolated from PXB-mice. Cells viability after isolation: >80%. Donor Hepatocytes were purchased from Corning, Incorporated (Tewksbury, Mass., USA), Lot: BD195 ([…]). […] Entecavir was purchased from Santa-cruz, Lot: 10914, Concentration: 1 mM. Plates was observed under microscopy and photographed.

Sequence of P-gp (P08183 whole entry): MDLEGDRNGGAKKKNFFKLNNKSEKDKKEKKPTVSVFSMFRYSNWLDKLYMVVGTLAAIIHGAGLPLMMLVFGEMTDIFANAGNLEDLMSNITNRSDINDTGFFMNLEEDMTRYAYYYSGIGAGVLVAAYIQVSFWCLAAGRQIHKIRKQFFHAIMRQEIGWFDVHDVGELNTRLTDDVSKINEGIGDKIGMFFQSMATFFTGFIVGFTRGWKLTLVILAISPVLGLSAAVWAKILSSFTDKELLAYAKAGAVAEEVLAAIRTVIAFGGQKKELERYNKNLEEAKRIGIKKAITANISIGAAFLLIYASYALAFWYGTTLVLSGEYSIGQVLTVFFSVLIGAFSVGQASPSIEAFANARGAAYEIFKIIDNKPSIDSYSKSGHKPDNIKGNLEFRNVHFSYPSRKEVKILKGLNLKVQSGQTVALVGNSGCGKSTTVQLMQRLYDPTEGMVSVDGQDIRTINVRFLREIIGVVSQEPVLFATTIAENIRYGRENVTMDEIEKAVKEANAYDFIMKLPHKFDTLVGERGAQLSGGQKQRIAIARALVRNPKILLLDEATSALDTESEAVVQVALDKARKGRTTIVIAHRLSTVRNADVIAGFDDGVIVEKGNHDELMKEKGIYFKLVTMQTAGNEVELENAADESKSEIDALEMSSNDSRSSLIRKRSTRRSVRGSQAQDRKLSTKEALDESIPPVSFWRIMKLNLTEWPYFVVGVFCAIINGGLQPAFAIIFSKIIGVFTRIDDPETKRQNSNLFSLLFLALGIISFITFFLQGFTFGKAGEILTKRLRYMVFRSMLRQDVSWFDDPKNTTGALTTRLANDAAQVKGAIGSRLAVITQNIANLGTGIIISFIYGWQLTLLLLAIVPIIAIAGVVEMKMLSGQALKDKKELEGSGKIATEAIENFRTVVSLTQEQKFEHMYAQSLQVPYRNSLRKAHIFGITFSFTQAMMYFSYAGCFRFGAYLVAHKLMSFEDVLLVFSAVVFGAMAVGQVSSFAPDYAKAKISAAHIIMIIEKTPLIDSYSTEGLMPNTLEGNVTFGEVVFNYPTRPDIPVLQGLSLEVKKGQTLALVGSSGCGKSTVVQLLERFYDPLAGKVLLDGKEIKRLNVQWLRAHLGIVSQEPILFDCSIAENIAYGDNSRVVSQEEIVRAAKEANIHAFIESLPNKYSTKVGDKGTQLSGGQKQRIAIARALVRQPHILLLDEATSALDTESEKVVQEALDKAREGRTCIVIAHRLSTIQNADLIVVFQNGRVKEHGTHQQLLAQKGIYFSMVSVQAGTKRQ

For `COc1cc2c(cc1OC)CN(CCc1ccc(NC(=O)c3cc(OC)c(OC)cc3NC(=O)c3cnc4ccccc4c3)cc1)CC2` [XR9576, N-[2-[[4-[2-(6,7-Dimethoxy-3,4-dihydro-1H-isoquinolin-2-yl)ethyl]phenyl]c-arbamoyl]-4,5-dimethoxyphenyl]quinoline-3-carboxamide], the “potency relative to the first and second-generation P-gp inhibitors” value on P-gp is reported as “about 10 fold”.

Turning to `C=C1[C@H](CO)[C@@H](O)C[C@@H]1n1cnc2c(=O)[nH]c(N)nc21` [Entecavir], the “Extracellular HBV DNA” value with HBV GT C (Entecavir 9.8 pM, Day 27) was found to be 6.36 Log copies/mL; in the data set with HBV GT C (Entecavir 19.5 pM, Day 27), 5.76 Log copies/mL; with HBV GT C (Entecavir 39.1 pM, Day 27) it was 5.06 Log copies/mL; in the data set with HBV GT C (Entecavir 78.1 pM, Day 27) it was 4.66 Log copies/mL; in the data set on HBV GT C (Entecavir 156.3 pM, Day 27), 4.56 Log copies/mL; in the data set on HBV GT C (Entecavir 312.5 pM, Day 27), 4.46 Log copies/mL. The “Extracellular HBV DNA” value in the data set with HBV GT C (Entecavir 625 pM, Day 27) is recorded as 4.46 Log copies/mL; in the data set with HBV GT C (Entecavir 1.25 nM, Day 27), 4.46 Log copies/mL; in the data set on HBV GT C (Entecavir 5 nM, Day 27), 4.26 Log copies/mL; in the data set on HBV GT C (Entecavir 10 nM, Day 27), 4.46 Log copies/mL. The “Extracellular HBsAg” value with HBV GT C (Entecavir 9.8 pM, Day 27) is 16.0 IU/mL; in the data set with HBV GT C (Entecavir 19.5 pM, Day 27), 14.2 IU/mL; in the data set with HBV GT C (Entecavir 39.1 pM, Day 27), 12.2 IU/mL; in the data set on HBV GT C (Entecavir 78.1 pM, Day 27), 15.7 IU/mL; in the data set with HBV GT C (Entecavir 156.3 pM, Day 27), 15.1 IU/mL; in the data set on HBV GT C (Entecavir 312.5 pM, Day 27), 14.3 IU/mL. Also, the “Extracellular HBsAg” value stood at 13.0 IU/mL with HBV GT C (Entecavir 625 pM, Day 27); 11.2 IU/mL with HBV GT C (Entecavir 1.25 nM, Day 27); 10.9 IU/mL in the data set with HBV GT C (Entecavir 5 nM, Day 27); 11.6 IU/mL in the data set with HBV GT C (Entecavir 10 nM, Day 27). Besides, the “Intracellular HBV DNA” value in the data set on HBV GT C (Entecavir 9.8 pM, Day 27) stood at 91546 copies/100 ng DNA; in the data set with HBV GT C (Entecavir 19.5 pM, Day 27) it was 53766 copies/100 ng DNA; in the data set on HBV GT C (Entecavir 39.1 pM, Day 27), 30701 copies/100 ng DNA; with HBV GT C (Entecavir 78.1 pM, Day 27), 14257 copies/100 ng DNA; in the data set with HBV GT C (Entecavir 156.3 pM, Day 27), 5620 copies/100 ng DNA; in the data set with HBV GT C (Entecavir 312.5 pM, Day 27), 3752 copies/100 ng DNA. Also, the “Intracellular HBV DNA” value with HBV GT C (Entecavir 625 pM, Day 27) amounted to 2954 copies/100 ng DNA; in the data set with HBV GT C (Entecavir 1.25 nM, Day 27), 3031 copies/100 ng DNA; with HBV GT C (Entecavir 5 nM, Day 27), 2974 copies/100 ng DNA; with HBV GT C (Entecavir 10 nM, Day 27), 2936 copies/100 ng DNA. The “Intracellular cccDNA” value with HBV GT C (Entecavir 9.8 pM, Day 27) is recorded as 125 copies/100 ng DNA; in the data set on HBV GT C (Entecavir 19.5 pM, Day 27), 82 copies/100 ng DNA; in the data set with HBV GT C (Entecavir 39.1 pM, Day 27), 69 copies/100 ng DNA; in the data set with HBV GT C (Entecavir 78.1 pM, Day 27), 82 copies/100 ng DNA; in the data set with HBV GT C (Entecavir 156.3 pM, Day 27), 61 copies/100 ng DNA; in the data set on HBV GT C (Entecavir 312.5 pM, Day 27), 34 copies/100 ng DNA. Moreover, the “Intracellular cccDNA” value was “+” in the data set with HBV GT C (Entecavir 625 pM, Day 27); “+” with HBV GT C (Entecavir 1.25 nM, Day 27); 33 copies/100 ng DNA with HBV GT C (Entecavir 5 nM, Day 27); “+” with HBV GT C (Entecavir 10 nM, Day 27). Besides, the “Extracellular HBeAg” value turned out to be 11.6 C.O.I in the data set with HBV GT C (Entecavir 9.8 pM); 10.0 C.O.I in the data set on HBV GT C (Entecavir 19.5 pM); 8.1 C.O.I in the data set on HBV GT C (Entecavir 39.1 pM); 9.8 C.O.I in the data set on HBV GT C (Entecavir 78.1 pM); 9.6 C.O.I in the data set with HBV GT C (Entecavir 156.3 pM); 9.4 C.O.I in the data set on HBV GT C (Entecavir 312.5 pM). For the same compound, the “Extracellular HBeAg” value in the data set on HBV GT C (Entecavir 625 pM) was 8.9 C.O.I; in the data set on HBV GT C (Entecavir 1.25 nM), 6.9 C.O.I; in the data set on HBV GT C (Entecavir 5 nM), 7.1 C.O.I; in the data set on HBV GT C (Entecavir 10 nM) it was 7.4 C.O.I. In addition, the anti-HBV efficacy entry with HBV GT C (HBV-infected PXB-cells, Day 27) is “anti-HBV efficacy in a dose dependent manner”.

With `CCOC/C=C/c1ccc(-c2nc(-c3ccc(NC(C)C)cc3)c(-c3ccc(NC(C)C)cc3)[nH]2)cc1` [OC144093, 4-[2-[4-[(E)-3-ethoxyprop-1-enyl]phenyl]-4-[4-(propan-2-ylamino)phenyl]-1H-imidazol-5-yl]-N-propan-2-ylaniline], the “potency relative to the first and second-generation P-gp inhibitors” value at P-gp was “about 10 fold”.
